Assay results: ChEMBL document CHEMBL1201862, “PubChem BioAssay data set” (2004)
Activity calls are given as the source filed them.

How the values were obtained:
[1] = viability of uninfected HEp-2 cells – cell-based, HTS, cytotoxicity control for RSV inhibitor project, dose response (AID 2410); format: functional; details: human respiratory syncytial virus
[2] = molecular target: Cytochrome P450 2C19 (Homo sapiens, UniProt P33261); assay: Cytochrome panel assay with activity outcomes. Panel member name: p450-cyp2c19 Compounds with AC50 equal or less than 10 uM are considered active; format: functional
[3] = molecular target: Cytochrome P450 2C9 (Homo sapiens, UniProt P11712)
[4] = tested on: Streptococcus sp. 'group A'; assay: Streptococcus pyogenes SK(-)GAS viability under kanamycin – luminescence, BacTiterGlo, confirmation, counter-screen for streptokinase expression inhibitor project, dose response (AID 1900); format: functional, organism-based
[5] = tested on: Streptococcus; assay: GAS UMAA2166 growth inhibition – luminescence, BacTiterGlo, counter-screen for streptokinase expression inhibitor project, dose response (AID 1915); format: functional, organism-based;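 further: potency for reduction of bacterial viability or growth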
[6] = molecular target: Cytochrome P450 3A4 (Homo sapiens, UniProt P08684);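 further: CYP3A4 tested as one member of a cytochrome P450 panel screen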
[7] = molecular target: T1, Rac GTPase-activating protein 1 (Homo sapiens, UniProt Q9H0H5); assay: blockers of MgcRacGAP-driven Rac1 GTP hydrolysis – biochemical, ADP Hunter fluorescence, primary and confirmatory, confirmation (AID 624330); format: functional
T1 sequence (Q9H0H5 whole entry): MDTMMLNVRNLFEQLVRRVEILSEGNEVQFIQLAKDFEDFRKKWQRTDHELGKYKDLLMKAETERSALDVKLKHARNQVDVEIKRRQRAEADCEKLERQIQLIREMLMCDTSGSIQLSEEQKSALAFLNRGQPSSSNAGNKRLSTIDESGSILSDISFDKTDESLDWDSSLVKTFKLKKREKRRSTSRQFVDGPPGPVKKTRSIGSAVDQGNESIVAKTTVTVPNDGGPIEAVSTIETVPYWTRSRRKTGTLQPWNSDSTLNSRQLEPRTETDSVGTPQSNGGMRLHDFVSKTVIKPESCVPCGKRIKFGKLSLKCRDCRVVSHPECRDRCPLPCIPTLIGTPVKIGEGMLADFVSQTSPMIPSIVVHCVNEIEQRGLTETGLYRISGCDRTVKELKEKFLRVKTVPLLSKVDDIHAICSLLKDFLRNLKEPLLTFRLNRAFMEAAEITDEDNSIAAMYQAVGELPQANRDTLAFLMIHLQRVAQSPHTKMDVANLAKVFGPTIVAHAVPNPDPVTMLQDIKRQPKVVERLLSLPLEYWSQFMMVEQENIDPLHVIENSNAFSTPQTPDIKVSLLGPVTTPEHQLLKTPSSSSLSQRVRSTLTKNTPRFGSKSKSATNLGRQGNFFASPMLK

[8] = molecular target: T2, Protein RecA (Mycobacterium tuberculosis, UniProt P9WHJ3); assay: Fluorescence Cell-Free Homogeneous Dose Retest to Identify Inhibitors of RecA-Intein Splicing Activity. [Related pubchem assays (depositor defined):AID2097, AID2223, AID489010, AID492950]; format: functional
T2 sequence (P9WHJ3 whole entry): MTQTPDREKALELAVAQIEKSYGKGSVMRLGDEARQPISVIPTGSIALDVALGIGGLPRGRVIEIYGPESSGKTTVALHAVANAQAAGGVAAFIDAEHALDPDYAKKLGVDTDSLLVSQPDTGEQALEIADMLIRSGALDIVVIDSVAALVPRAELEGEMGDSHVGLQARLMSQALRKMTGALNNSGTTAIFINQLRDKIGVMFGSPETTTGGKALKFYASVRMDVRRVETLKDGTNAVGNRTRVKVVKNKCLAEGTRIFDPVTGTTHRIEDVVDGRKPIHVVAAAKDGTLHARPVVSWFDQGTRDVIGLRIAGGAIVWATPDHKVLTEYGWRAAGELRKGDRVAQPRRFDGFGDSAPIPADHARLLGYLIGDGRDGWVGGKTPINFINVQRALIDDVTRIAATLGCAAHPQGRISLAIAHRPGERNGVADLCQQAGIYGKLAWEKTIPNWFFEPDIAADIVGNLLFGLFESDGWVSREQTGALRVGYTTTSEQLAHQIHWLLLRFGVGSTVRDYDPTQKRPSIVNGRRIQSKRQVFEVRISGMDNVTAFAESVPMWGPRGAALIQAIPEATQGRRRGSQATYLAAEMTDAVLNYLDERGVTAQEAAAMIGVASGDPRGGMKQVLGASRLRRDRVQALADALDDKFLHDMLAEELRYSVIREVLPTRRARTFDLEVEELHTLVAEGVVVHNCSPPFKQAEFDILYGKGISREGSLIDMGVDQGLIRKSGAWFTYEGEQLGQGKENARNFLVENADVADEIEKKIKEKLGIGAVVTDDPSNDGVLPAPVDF

Cytochrome P450 2C9, sequence (P11712 whole entry): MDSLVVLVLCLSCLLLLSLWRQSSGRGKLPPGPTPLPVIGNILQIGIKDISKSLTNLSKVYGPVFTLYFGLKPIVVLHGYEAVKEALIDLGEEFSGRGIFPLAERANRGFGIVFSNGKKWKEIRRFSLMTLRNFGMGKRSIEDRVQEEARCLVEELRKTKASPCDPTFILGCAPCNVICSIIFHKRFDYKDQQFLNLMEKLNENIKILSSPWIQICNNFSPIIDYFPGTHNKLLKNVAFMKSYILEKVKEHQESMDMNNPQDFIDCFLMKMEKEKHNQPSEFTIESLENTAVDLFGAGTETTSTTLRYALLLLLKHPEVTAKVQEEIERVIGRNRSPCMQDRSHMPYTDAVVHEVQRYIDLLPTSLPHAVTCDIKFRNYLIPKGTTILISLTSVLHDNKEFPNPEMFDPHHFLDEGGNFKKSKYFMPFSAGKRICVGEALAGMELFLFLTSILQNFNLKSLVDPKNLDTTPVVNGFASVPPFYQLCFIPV
Cytochrome P450 2C19, sequence (P33261 whole entry): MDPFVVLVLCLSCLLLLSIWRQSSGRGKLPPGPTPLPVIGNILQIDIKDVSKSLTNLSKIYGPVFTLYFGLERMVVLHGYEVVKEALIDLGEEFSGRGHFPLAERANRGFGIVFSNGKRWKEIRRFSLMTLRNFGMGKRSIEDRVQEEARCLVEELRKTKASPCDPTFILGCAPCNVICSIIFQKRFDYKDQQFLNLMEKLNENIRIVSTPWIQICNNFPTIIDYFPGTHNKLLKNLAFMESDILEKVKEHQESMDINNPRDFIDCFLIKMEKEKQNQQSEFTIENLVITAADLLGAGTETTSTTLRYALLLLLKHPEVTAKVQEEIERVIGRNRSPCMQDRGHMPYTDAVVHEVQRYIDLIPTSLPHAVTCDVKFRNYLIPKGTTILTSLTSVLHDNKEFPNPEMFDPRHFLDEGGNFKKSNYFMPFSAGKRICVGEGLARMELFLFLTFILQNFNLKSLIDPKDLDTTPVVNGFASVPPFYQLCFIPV
Cytochrome P450 3A4, sequence (P08684 whole entry): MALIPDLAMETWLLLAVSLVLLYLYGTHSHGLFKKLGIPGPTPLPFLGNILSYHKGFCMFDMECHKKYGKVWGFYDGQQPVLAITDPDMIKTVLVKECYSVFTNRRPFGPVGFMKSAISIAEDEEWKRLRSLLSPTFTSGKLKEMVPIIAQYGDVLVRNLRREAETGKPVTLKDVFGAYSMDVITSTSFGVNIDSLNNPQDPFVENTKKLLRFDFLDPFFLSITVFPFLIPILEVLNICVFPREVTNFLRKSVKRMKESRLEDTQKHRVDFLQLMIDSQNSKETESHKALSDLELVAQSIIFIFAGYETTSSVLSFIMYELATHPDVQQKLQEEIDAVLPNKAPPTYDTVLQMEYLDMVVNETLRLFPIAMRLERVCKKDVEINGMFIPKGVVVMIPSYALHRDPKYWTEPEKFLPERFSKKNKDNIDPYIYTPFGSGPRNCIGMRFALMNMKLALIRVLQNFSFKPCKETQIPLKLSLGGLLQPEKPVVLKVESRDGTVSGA

O=C(COC(=O)c1c2ccccc2cc2ccccc12)NCC(F)(F)F
CC50 [1]: 23.6 µM (active)

CCN(C(=O)CSc1nnc(Cn2nnc3ccccc32)o1)c1nc(-c2ccccc2)cs1
CC50 [1]: 26.4 µM (active)

O=C(CN1CCN(c2nc(-c3ccccc3)cs2)CC1)NCc1ccc2c(c1)OCO2
CC50 [1]: 11 µM (active)

O=C(O)[C@H](Cc1cc(I)c(O)c(I)c1)C1CCCCC1
AC50 ([2]; read-out: AC50): 2 µM (inconclusive)
AC50 [3]: 3.16 µM (inconclusive)

CCC(C#CCN1CCCCC1)(CC)OCCC#N
AC50 [3]: 0.355 µM (inconclusive)

COc1ccc2c(c1OC)C(=O)OC2Nc1ncccc1C (stereo not given)
AC50 ([2]; read-out: AC50): 39.8 µM (inconclusive)

CCOC(=O)c1cnc2cc(-c3ccc(C(C)(C)C)cc3)nn2c1N
AC50 [3]: 3.16 µM (inconclusive)

COc1ccc(CSCCN=C(S)Nc2ccccc2)cc1Cl
EC50 [4]: 18.5 µM (active)
EC50 [5]: > 150 µM (not active)

COc1ccc(C(=O)CC(=O)C(=O)Nc2ccccc2C(F)(F)F)cc1
EC50 [4]: 3.52 µM (active)
EC50 [5]: 8.59 µM (active)

CS(=O)(=O)N1CCN(c2ccc([N+](=O)[O-])c(NCc3ccccc3)c2)CC1
AC50 ([2]; read-out: AC50): 31.6 µM (inconclusive)
AC50 [6]: 31.6 µM (inconclusive)

Cc1ccc2nc(NC(=O)COC(=O)CSc3nc(C)cc(C)n3)sc2c1
AC50 ([2]; read-out: AC50): 5.01 µM (inconclusive)

Cc1ccc(-n2cnc3cc(NCc4cccs4)ccc32)cc1
CC50 [1]: 25.3 µM (active)

COc1ccc(NC(=O)CSc2nc(-c3ccc(C)cc3)cc(C(F)(F)F)c2C#N)cc1
AC50 ([2]; read-out: AC50): 20 µM (inconclusive)

COc1cc(/C=C/CN2CCC(CO)(CC3CCCCO3)CC2)ccc1O (stereo not given)
IC50 [7]: 91.2 µM (active)

C=CCOC(=O)C1=C(C)NC(=O)NC1c1ccc(OC(=O)c2ccco2)c(OC)c1 (stereo not given)
EC50 [8]: 18 µM (active)

CCCC(=O)Nc1nc(C(=O)OCC)cs1
AC50 ([2]; read-out: AC50): 39.8 µM (inconclusive)

O=C(CN1CCN(C(c2ccccc2)c2ccccc2)CC1)N1CCN(c2ccccc2)CC1
CC50 [1]: 23.9 µM (active)

COc1ccc(NC2CCCN(C(=O)c3oc(C)cc3C)C2)cc1OC (stereo not given)
IC50 [7]: 159 µM (active)

Cc1cc(C)c2c(CN3CCN(Cc4ccc5c(c4)OCO5)CC3)cc(=O)oc2c1
CC50 [1]: 16.8 µM (active)

COc1ncc2nc(CCc3ccccc3)c(=O)n(C3CC3)c2n1
AC50 [6]: 31.6 µM (inconclusive)

CCCc1nc2c(c(=O)c3ccccc3n2C)c(=O)n1-c1cc(C)cc(C)c1
CC50 [1]: > 50 µM (active)

COC(=O)C(O)(c1c(C)[nH]c2ccccc12)C(F)(F)F (stereo not given)
AC50 [6]: 22.4 µM (inconclusive)
AC50 [3]: 3.16 µM (inconclusive)

COc1ccc(N(C(=O)Cn2nnc3ccccc32)C2(C(=O)NC3CCCC3)CCCCC2)cc1
AC50 ([2]; read-out: AC50): 14.1 µM (inconclusive)
AC50 [3]: 22.4 µM (inconclusive)

COCCNc1nc(-c2ccc(C(=O)N(C)C)cc2)nc2ccccc12
AC50 [6]: 15.8 µM (inconclusive)

Cc1nnc(SCC2=C(C(=O)O)N3C(=O)C(NC(=O)C(C)n4nc(C(F)(F)F)cc4C)C3SC2)s1 (stereo not given)
EC50 [4]: 0.201 µM (active)
EC50 [5]: 0.421 µM (active)

Cc1nc2cnc(Oc3cccc(Cl)c3)nc2n(CCC#N)c1=O
AC50 [3]: 39.8 µM (inconclusive)

Cc1ccc(-c2csc(NCCc3nc4cc(Cl)c(Cl)cc4n3CCCO)n2)cc1
CC50 [1]: 28.9 µM (active)

COCC(C)n1c(C)cc(C(=O)COC(=O)c2c(C)nn(-c3ccccc3)c2C)c1C (stereo not given)
CC50 [1]: 29.2 µM (active)

Cc1nn2cc(-c3ccc(N)cc3)nc2s1
IC50 [7]: 110 µM (active)

COc1ccc(C(=O)CN2C(=O)NC(C)(c3ccccc3)C2=O)cc1OC (stereo not given)
AC50 ([2]; read-out: AC50): 39.8 µM (inconclusive)
AC50 [6]: 4.47 µM (inconclusive)

Nc1ncnc2c1ncn2[C@@H]1O[C@@H](C(=O)NC2CC2)[C@H](O)[C@@H]1O
AC50 [6]: 1 µM (inconclusive)

C/C(CCN1CCc2nc(-c3ccccc3)c(-c3ccccc3)cc2C1)=N\OC[C@@H](O)[C@@H]1O[C@@H]2OC(C)(C)O[C@@H]2[C@H]1O
AC50 [6]: 3.98 µM (inconclusive)

CNc1nc(-c2ccc3c(c2)CCN3C(=O)c2ccccc2C)cs1
CC50 [1]: 14.9 µM (active)

Cn1c(O)c(C(c2ccccn2)c2c(O)n(C)c(=S)n(C)c2=O)c(=O)n(C)c1=S
AC50 [3]: 1.58 µM (inconclusive)

O=C(COc1ccccc1)Nc1ccc2[nH]c(O)nc2c1
CC50 [1]: 26 µM (active)

COc1ccc(NC(S)=NC(=NCS(=O)(=O)c2ccccc2)c2ccccc2)cc1
CC50 [1]: 24.6 µM (active)

N=C(N)CCNC(=O)[C@@H]1CCC(N)=N1.O=S(=O)(O)O
AC50 [2]: inconclusive

O=C1[C@H]2[C@@H](c3ccc(F)cc3)N3C(=O)N(c4ccc(C(F)(F)F)cc4)C(=O)[C@@]3(Cc3ccccc3)[C@H]2C(=O)N1C1CCCCC1
CC50 [1]: > 50 µM (active)

O=C(NCc1ccco1)c1nc(O)c2nnn(Cc3cccc(Cl)c3)c2n1
AC50 [3]: 15.8 µM (inconclusive)

COc1ccccc1N1CCN(CC(=O)NCC2CCCO2)CC1 (stereo not given)
IC50 [7]: 51.9 µM (active)

Cc1[nH]nc(-c2ccc(OCc3cnn(-c4ccccc4)c3)cc2O)c1Oc1ccccc1F
AC50 [6]: 8.91 µM (inconclusive)

Oc1ccc(Br)cc1Cn1nnc2ccccc21
CC50 [1]: 30 µM (active)

COc1cc(CN2CCN(Cc3ccc(C(F)(F)F)cc3)CC2)cc(OC)c1OC
IC50 [7]: 122 µM (active)

COc1ccc(CCNCc2ccccc2)cc1
IC50 [7]: 134 µM (active)

COCCn1c(=O)c(-c2cccs2)nc2cnc(OC)nc21
AC50 ([2]; read-out: AC50): 20 µM (inconclusive)
AC50 [3]: 39.8 µM (inconclusive)

COc1cccc([C@@H]2Oc3ccc(OC)cc3/C(=N/O[C@@H](C)CN3CCCc4nc(C)c(C)cc43)[C@@H]2O)c1
AC50 ([2]; read-out: AC50): 0.251 µM (inconclusive)
AC50 [3]: 2 µM (inconclusive)

COc1ccc(NC(=O)c2nc[nH]n2)cc1
AC50 ([2]; read-out: AC50): 31.6 µM (inconclusive)
AC50 [3]: 0.708 µM (inconclusive)

OC1CNc2c(ccc3ccccc23)C1 (stereo not given)
IC50 [7]: 18.4 µM (active)

COc1ccccc1CNC(=O)C[C@@H]1C[C@H]2c3cc(N(C)C)ccc3O[C@H]2[C@H](CO)O1
IC50 [7]: 153 µM (active)

COc1cc(/C=N/N=C2/SCC(=O)N2c2ccc(O)cc2)ccc1O
IC50 [7]: 65 µM (active)

C/C(CC(=O)NC1CCCC1)=N\NC(=O)Cc1cccs1
AC50 [6]: 12.6 µM (inconclusive)

CCN1CCN(c2ccc(/N=C/c3ccc(O)cc3O)cc2)CC1
IC50 [7]: 28 µM (active)

O=C(CCC(=O)Nc1ccc(F)cc1)N/N=C/c1ccc(O)cc1
IC50 [7]: 62.8 µM (active)

Cc1ccc(S(=O)(=O)Nc2ccc(NC(=O)CN3CCCCC3)c(Cl)c2)cc1
CC50 [1]: 24.8 µM (active)
